In the experiment the target is CDK2/Cyclin E1 (Homo sapiens (Human), UniProt P24941). The experiment in a line: CDK2/Cyclin E1 HTRF enzyme activity assay (Example A). The class given is biochemical. As to conditions: 1 mM ATP. How it is done: Assays were conducted in white 384-well polystyrene plates in a final reaction volume of 8 μL. […] HTRF signals were read after 1 hour at room temperature on a PHERAstar FS plate reader (BMG Labtech). Data was analyzed with IDBS XLFit and GraphPad Prism 5.0 software using a three or four parameter dose response curve to determine IC50 for each compound.
A general note: In TR-FRET formats the signal depends on donor and acceptor labels being close together.

As usually defined, the IC50 is the midpoint of a concentration-inhibition curve. A higher IC50 goes with weaker potency. Molecule `Cc1nc(-c2nc(NC3CCN(S(C)(=O)=O)CC3)ncc2C(F)(F)F)cn1-c1ccc(N2CCN[C@H](C)C2)cc1F` [Example 115, (R)-4-(1-(2-Fluoro-4-(3-methyl-piperazin-1-yl)-phenyl)-2-methyl-1H-imidazol-4-yl)-N-(1-(methyl-sulfonyl)piperidin-4-yl)-5-(trifluoro-methyl)pyrimidin-2-amine] showed a half-inhibitory concentration (IC50) of at most 50 nM.
`Cc1nc(-c2nc(NC3CCN(S(C)(=O)=O)CC3)ncc2C(F)(F)F)cn1-c1ccc(N2CC[C@H](O)C2)cc1F` [Example 116, (S)-1-(3-Fluoro-4-(2-methyl-4-(2-((1-(methylsulfonyl)-piperidin-4-yl)-amino)-5-(trifluoro-methyl)pyrimidin-4-yl)-1H-imidazol-1-yl)phenyl)pyrrolidin-3-ol]: the IC50 was at most 50 nM.
`Cc1nc(-c2nc(NC3CCN(S(C)(=O)=O)CC3)ncc2C(F)(F)F)cn1-c1ccc(N[C@@H]2CCCN(C)C2)cc1F` [Example 117] returned an IC50 of at most 50 nM.
The molecule `Cc1nc(-c2nc(N[C@H]3CCN(S(C)(=O)=O)C[C@H]3F)ncc2C(F)(F)F)cn1-c1ccc(N2CCC(N(C)C)CC2)cc1F` [Example 118, 4-(1-(4-(4-(Dimethylamino)piperidin-1-yl)-2-fluorophenyl)-2-methyl-1H-imidazol-4-yl)-N-((3R,4S)-3-fluoro-1-(methylsulfonyl)piperidin-4-yl)-5-(trifluoromethyl)pyrimidin-2-amine] gave a 50% inhibitory concentration (IC50) of at most 50 nM.
The molecule `Cn1nccc1-c1ccc(-n2cnc(-c3nc(NC4CCN(S(C)(=O)=O)CC4)ncc3C(F)(F)F)c2)c(Cl)c1` [Example 119, 4-(1-(2-Chloro-4-(1-methyl-1H-pyrazol-5-yl)phenyl)-1H-imidazol-4-yl)-N-(1-(methylsulfonyl)piperidin-4-yl)-5-(trifluoromethyl)pyrimidin-2-amine] returned a concentration for half-maximal inhibition (IC50) of at most 50 nM.
Then `Cc1nnn(C)c1-c1ccc(-n2cnc(-c3nc(NC4CCN(S(C)(=O)=O)CC4)ncc3C(F)(F)F)c2)c(Cl)c1` [Example 120, 4-(1-(2-Chloro-4-(1,4-dimethyl-1H-1,2,3-triazol-5-yl)phenyl)-1H-imidazol-4-yl)-N-(1-(methylsulfonyl)-piperidin-4-yl)-5-(trifluoromethyl)-pyrimidin-2-amine], with at most 50 nM; and `Cn1ncnc1-c1ccc(-n2cnc(-c3nc(NC4CCN(S(C)(=O)=O)CC4)ncc3C(F)(F)F)c2)c(Cl)c1` [Example 121, 4-(1-(2-Chloro-4-(1-methyl-1H-1,2,4-triazol-5-yl)phenyl)-1H-imidazol-4-yl)-N-(1-(methylsulfonyl)-piperidin-4-yl)-5-(trifluoromethyl)-pyrimidin-2-amine], with at most 50 nM; and `Cn1nncc1-c1ccc(-n2cnc(-c3nc(NC4CCN(S(C)(=O)=O)CC4)ncc3C(F)(F)F)c2)c(Cl)c1` [Example 122, 4-(1-(2-Chloro-4-(1-methyl-1H-1,2,3-triazol-5-yl)phenyl)-1H-imidazol-4-yl)-N-(1-(methyl-sulfonyl)piperidin-4-yl)-5-(trifluoro-methyl)pyrimidin-2-amine], with at most 50 nM.
Molecule `Cc1ncn(C)c1-c1ccc(-n2cnc(-c3nc(NC4CCN(S(C)(=O)=O)CC4)ncc3C(F)(F)F)c2)c(Cl)c1` [Example 123, 4-(1-(2-Chloro-4-(1,4-dimethyl-1H-imidazol-5-yl)phenyl)-1H-imidazol-4-yl)-N-(1-(methylsulfonyl)-piperidin-4-yl)-5-(trifluoromethyl)-pyrimidin-2-amine] returned an IC50 of at most 50 nM.
In the case of `Cn1cncc1-c1ccc(-n2cnc(-c3nc(NC4CCN(S(C)(=O)=O)CC4)ncc3C(F)(F)F)c2)c(Cl)c1` [Example 124, 4-(1-(2-Chloro-4-(1-methyl-1H-imidazol-5-yl)phenyl)-1H-imidazol-4-yl)-N-(1-(methylsulfonyl)-piperidin-4-yl)-5-(trifluoromethyl)-pyrimidin-2-amine], the IC50 was at most 50 nM.
As to `Cn1ncnc1-c1ccc(-n2cnc(-c3nc(NC4CCN(S(C)(=O)=O)CC4)ncc3C(F)(F)F)c2)c(C#N)c1` [Example 125, 5-(1-Methyl-1H-1,2,4-triazol-5-yl)-2-(4-(2-((1-(methylsulfonyl)piperidin-4-yl)amino)-5-(trifluoromethyl)pyrimidin-4-yl)-1H-imidazol-1-yl)benzonitrile], the IC50 is at most 50 nM.
For the molecule `CS(=O)(=O)N1CCC(Nc2ncc(C(F)(F)F)c(-c3cn(-c4ccc(OC(F)F)cc4C#N)cn3)n2)CC1` [Example 126, 5-(Difluoromethoxy)-2-(4-(2-((1-(methylsulfonyl)piperidin-4-yl)amino)-5-(trifluoromethyl)pyrimidin-4-yl)-1H-imidazol-1-yl)benzonitrile], the IC50 is at most 50 nM.
As for `Cc1nn(C)cc1-c1ccc(-n2cc(-c3nc(NC4CCN(S(C)(=O)=O)CC4)ncc3C(F)(F)F)nc2C)c(F)c1` [Example 127, 4-(1-(4-(1,3-Dimethyl-1H-pyrazol-4-yl)-2-fluorophenyl)-2-methyl-1H-imidazol-4-yl)-N-(1-(methylsulfonyl)piperidin-4-yl)-5-(trifluoromethyl)pyrimidin-2-amine], the IC50 was at most 50 nM.
`Cc1nc(-c2nc(NC3CCN(S(C)(=O)=O)CC3)ncc2C(F)(F)F)cn1-c1ccc(-c2cnnn2C)cc1F` [Example 128, 4-(1-(2-Fluoro-4-(1-methyl-1H-1,2,3-triazol-5-yl)phenyl)-2-methyl-1H-imidazol-4-yl)-N-(1-(methylsulfonyl)piperidin-4-yl)-5-(trifluoromethyl)pyrimidin-2-amine] gave an IC50 of at most 50 nM.
`Cc1nc(-c2nc(NC3CCN(S(C)(=O)=O)CC3)ncc2C(F)(F)F)cn1-c1ccc(-c2ccnn2C)cc1F` [Example 129, 4-(1-(2-Fluoro-4-(1-methyl-1H-pyrazol-5-yl)phenyl)-2-methyl-1H-imidazol-4-yl)-N-(1-(methylsulfonyl)-piperidin-4-yl)-5-(trifluoromethyl)-pyrimidin-2-amine] returned an IC50 of at most 50 nM.
For the molecule `Cc1nc(C(N)=O)ccc1-n1cnc(-c2nc(NC3CCN(S(C)(=O)=O)CC3)ncc2C(F)(F)F)c1` [Example 130, 6-Methyl-5-(4-(2-((1-(methylsulfonyl)piperidin-4-yl)amino)-5-(trifluoromethyl)pyrimidin-4-yl)-1H-imidazol-1-yl)picolinamide], the IC50 is at most 50 nM.
`[2H]C([2H])([2H])NC(=O)c1ccc(-n2cnc(-c3nc(NC4CCN(S(C)(=O)=O)CC4)ncc3C(F)(F)F)c2)c(C)n1` [Example 131, 6-Methyl-N-(methyl-d)-5-(4-(2-((1-(methylsulfonyl)piperidin-4-yl)amino)-5-(trifluoromethyl)pyrimidin-4-yl)-1H-imidazol-1-yl)picolinamide] gave an IC50 of at most 50 nM.
Then `CNC(=O)c1ccc(-n2cnc(-c3nc(NC4CCN(S(C)(=O)=O)CC4)ncc3C(F)(F)F)c2)c(C)n1` [Example 132, N,6-Dimethyl-5-(4-(2-((1-(methyl-sulfonyl)piperidin-4-yl)amino)-5-(trifluoromethyl)-pyrimidin-4-yl)-1H-imidazol-1-yl)picolinamide], with at most 50 nM.
Consider `Cc1nc(C(=O)NC(C)C)ccc1-n1cnc(-c2nc(NC3CCN(S(C)(=O)=O)CC3)ncc2C(F)(F)F)c1` [Example 133, N-Isopropyl-6-methyl-5-(4-(2-((1-(methyl-sulfonyl)piperidin-4-yl)amino)-5-(trifluoromethyl)-pyrimidin-4-yl)-1H-imidazol-1-yl)picolinamide], for which the 50% inhibitory concentration (IC50) is at most 50 nM.
The molecule `CCNC(=O)c1ccc(-n2cnc(-c3nc(NC4CCN(S(C)(=O)=O)CC4)ncc3C(F)(F)F)c2)c(C)n1` [Example 134, N-Ethyl-6-methyl-5-(4-(2-((1-(methyl-sulfonyl)piperidin-4-yl)amino)-5-(trifluoromethyl)-pyrimidin-4-yl)-1H-imidazol-1-yl)picolinamide] gave an IC50 of at most 50 nM.
As for `CN(C)C(=O)c1ccc(-n2cnc(-c3nc(NC4CCN(S(C)(=O)=O)CC4)ncc3C(F)(F)F)c2)c(Cl)c1` [Example 135, 3-Chloro-N,N-dimethyl-4-(4-(2-((1-(methylsulfonyl)piperidin-4-yl)amino)-5-(trifluoromethyl)pyrimidin-4-yl)-1H-imidazol-1-yl)benzamide], the IC50 is at most 50 nM.
Consider `CN(C)C(=O)c1ccc(-n2cnc(-c3nc(NC4CCN(S(C)(=O)=O)CC4)ncc3C(F)(F)F)c2)c(Cl)c1F` [Example 136, 3-Chloro-2-fluoro-N,N-dimethyl-4-(4-(2-((1-(methylsulfonyl)piperidin-4-yl)amino)-5-(trifluoromethyl)pyrimidin-4-yl)-1H-imidazol-1-yl)benzamide], for which the IC50 is at most 50 nM.
For the molecule `CNC(=O)c1ccc(-n2cnc(-c3nc(NC4CCN(S(C)(=O)=O)CC4)ncc3C(F)(F)F)c2)c(Cl)c1Cl` [Example 137, 2,3-Dichloro-N-methyl-4-(4-(2-((1-(methylsulfonyl)piperidin-4-yl)amino)-5-(trifluoromethyl)pyrimidin-4-yl)-1H-imidazol-1-yl)benzamide], the IC50 is at most 50 nM.
In turn, `CS(=O)(=O)N1CCC(Nc2ncc(C(F)(F)F)c(-c3cn(-c4ccc(N5CC[C@@H](O)C5)cc4Cl)cn3)n2)CC1` [Example 138, (R)-1-(3-Chloro-4-(4-(2-((1-(methylsulfonyl)piperidin-4-yl)amino)-5-(trifluoromethyl)pyrimidin-4-yl)-1H-imidazol-1-yl)phenyl)pyrrolidin-3-ol] came in with a concentration for half-maximal inhibition (IC50) of at most 50 nM.
Regarding `CS(=O)(=O)N1CCC(Nc2ncc(C(F)(F)F)c(-c3cn(-c4ccc(N5CC[C@H](O)C5)cc4Cl)cn3)n2)CC1` [Example 139, (S)-1-(3-Chloro-4-(4-(2-((1-(methyl-sulfonyl)piperidin-4-yl)amino)-5-(trifluoromethyl)-pyrimidin-4-yl)-1H-imidazol-1-yl)-phenyl)pyrrolidin-3-ol], the IC50 is at most 50 nM.
In the case of `C[C@H]1CN(c2ccc(-n3cnc(-c4nc(NC5CCN(S(C)(=O)=O)CC5)ncc4C(F)(F)F)c3)c(Cl)c2)CCN1` [Example 140, (S)-4-(1-(2-Chloro-4-(3-methyl-piperazin-1-yl)-phenyl)-1H-imidazol-4-yl)-N-(1-(methyl-sulfonyl)piperidin-4-yl)-5-(trifluoro-methyl)pyrimidin-2-amine], the half-maximal inhibitory concentration (IC50) is at most 50 nM.

(Values after patent publication US11427567B2, “Imidazolyl pyrimidinylamine compounds as CDK2 inhibitors” (Incyte Corporation, priority 2019, dated 2022).)
